The text below walks through data of patent US20130296412A1, “Artemisinin-Like Derivatives with Cytotoxic and Anti-Angiogenic Properties” (DAFRA PHARMA N.V., priority 2010, published 2013).

The subject of one data set is zebrafish embryos. Put plainly: Tg(fli1:EGFP) zebrafish embryo in vivo angiogenesis assay. The following applies: for Concentration at which intersomitic vessel (ISV) formation was suppressed: as low as, toxicity evident above; for Anti-angiogenic effect (in words): zebrafish embryos, concentration range. Here is the method: Tg(fli1:EGFP) zebrafish, which express enhanced green fluorescent protein (GFP) in their endothelial cells, were used as an in vivo model for angiogenesis. At 20 hours post-fertilization (hpf), zebrafish embryos (10 per well/condition) were bathed in fish media, containing a concentration range of each of the compounds or control. Compounds had been dissolved as stock solutions in DMSO, stored at room temperature, and serially diluted in fish media prior to use. The anti-angiogenic tyrosinase kinase inhibitor SU5416 (Pfizer), and a vehicle-alone control containing the maximum concentration of DMSO were used as controls in all experiments.
In the first sets of experiments, a broad range of concentrations were used to identify the maximum tolerable dose, based on toxicity to the embryos, visualized directly by light microscopy. Subsequent experiments were performed a minimum of two times. Live analyses of the embryos were performed under light and fluorescence microscopy at 28 hpf and 48 hpf to monitor viability, overall morphology, and pattern of swimming. Angiogenesis was evaluated visually by fluorescence microscopy.
The developmental growth and patterning of the dorsal aorta, posterior cardinal vein, intersomitic vessels (ISV), and vascular plexus (VP) were monitored, as was the heart rate, and blood flow.
Eight compounds (4, 7, 8, 9, 10, 11, 12 and 15) were compared to artesunate for their anti-angiogenic potential using an in vivo zebrafish embryo model system (Table III blow). DMSO at concentrations of 0.5, 1, and 2% was used as vehicle control. No effects were observed on overall morphology, heart rate, blood flow, or angiogenesis in control embryos. The anti-angiogenic agent SU5416 was used as a positive control.

The subject of data set [1] is CEM/ADR5000 leukemia cells (P-glycoprotein-overexpressing). Kind of data set: XTT cytotoxicity assay, multidrug-resistant cells. Format: cell-based, human. The following applies: for Degree of resistance: CEM/ADR5000 versus CCRF-CEM. Here is the method:
(§1) Multidrug-resistant, P-glycoprotein-overexpressing CEM/ADR5000 cells and their parental, drug-sensitive counterpart, CCRF-CEM cells were used. The cell lines were provided by Dr. Daniel Steinbach (University of Ulm, Ulm, Germany).
(§2) Doxorubicin resistance of CEM/ADR5000 was maintained as described. […] The cell lines were maintained in RPMI medium (Life Technologies) supplemented with 10% FCS in a humidified 7% CO2 atmosphere at 37° C. Cells were passaged twice weekly. All experiments were done with cells in the logarithmic growth
(§3) Cytotoxicity was assessed using the 2,3-bis[2-methoxy-4-nitro-5-sulfophenyl]-2H-tetrazolium-5-carboxanilide inner salt (XTT) assay kit (Roche, Indianapolis, Ind.), which measures the metabolic activity of viable cells. Toxicity of compounds was determined with the Cell Proliferation Kit II (Roche Diagnostics, Mannheim, Germany), according to the manufacturer's instructions.
Fresh stock solutions of each compound were prepared in DMSO at a concentration of 100 mM, and a dilution series was prepared in DMEM. […] Marginal wells were filled with 100 μL of media to minimize evaporation. A row of wells with cells was left untreated and another row of wells with cells was treated with 1 μL DMSO, the latter serving as a solvent control. All studies were performed in duplicate, in a range of concentrations, and in two independent experiments with different batches of cells.
(§4) The ligand binding module of Sigma plot software (version 10.0) was used for analysis.
(§5) All compounds were tested both towards drug-sensitive CCRF-CEM leukemia cells and their multidrug-resistant subline, CEM/ADR5000.

In data set [2] the test system is P-gp expressed in porcine capillaries. Kind of data set: Transport of NBD-CSA into porcine brain capillary lumens (confocal microscopy). Format: cell-based. An excerpt:
Luminal P-gp was inhibited by a well-known selective P-gylcoprotein inhibitor, PSC-833.

In the next data set the test system is CCRF-CEM leukemia cells. Kind of data set: XTT cytotoxicity assay, drug-sensitive cells. Format: cell-based, human. As for the experimental part:
as §1, §2, §3
Fresh stock solutions of each compound were prepared in DMSO at a concentration of 100 mM, and a dilution series was prepared in DMEM. Cells were suspended at a final concentration of 1×10^5 cells/ml, and […] were aliquoted per well into a 96-well culture plate (Costar, Corning, USA). Marginal wells were filled with 100 μL of media to minimize evaporation. A row of wells with cells was left untreated and another row of wells with cells was treated with 1 μL DMSO, the latter serving as a solvent control. All studies were performed in duplicate, in a range of concentrations, and in two independent experiments with different batches of cells.
as §4, §5

The next data set addresses P-glycoprotein (P-gp) (Homo sapiens, UniProt P08183). Kind of data set: Calcein-AM assay with flow cytometry in CEM/ADR5000 cells. The following applies: for EC max (intracellular calcein fluorescence compared to untreated controls) / EC50: CEM/ADR5000 cells, flow cytometry; for EC50: read-out: EC50 calcein-AM assay.
The next data set relates to HUVEC cells. Put plainly: VEGF-induced HUVEC proliferation/viability assay (WST1). The format is cell-based, human. The note with it: 30 ng/ml VEGF165, 0.5-100 μM, 96 hrs. Here is the method:
Single donor HUVEC cells were purchased from Lonza (Breda, Netherlands). Cells were seeded at 5,000 cells per well in 96-well microtiterplates in EGM-2EV medium (Invitrogen). Upon adherence the cells were gently washed twice with PBS and starved overnight in EGM-2EV medium with reduced FBS content (0.1%; starvation medium).
After 96 hrs, cell growth was quantified using the WST1 Rapid cell proliferation kit (Calbiochem), and was expressed in percentage of the control value (VEGF alone). Experiments were carried out in triplets.
To further evaluate the anti-angiogenic potential of the present novel compounds, proliferation and survival of human umbilical vein endothelial cells (HUVECs) treated with VEGF and two compounds that were very active in the zebrafish model were assayed.

Where [3] appears, read: Homo sapiens, ADR5000, read-out: IC50 CEM/ADR5000.
Where [4] appears, read: multidrug-resistant CEM/ADR5000 cells, XTT, read-out: IC50 CEM/ADR5000.

Like-named read-outs stand apart in the source and are kept apart here.

P-glycoprotein (P-gp), sequence (P08183 whole entry): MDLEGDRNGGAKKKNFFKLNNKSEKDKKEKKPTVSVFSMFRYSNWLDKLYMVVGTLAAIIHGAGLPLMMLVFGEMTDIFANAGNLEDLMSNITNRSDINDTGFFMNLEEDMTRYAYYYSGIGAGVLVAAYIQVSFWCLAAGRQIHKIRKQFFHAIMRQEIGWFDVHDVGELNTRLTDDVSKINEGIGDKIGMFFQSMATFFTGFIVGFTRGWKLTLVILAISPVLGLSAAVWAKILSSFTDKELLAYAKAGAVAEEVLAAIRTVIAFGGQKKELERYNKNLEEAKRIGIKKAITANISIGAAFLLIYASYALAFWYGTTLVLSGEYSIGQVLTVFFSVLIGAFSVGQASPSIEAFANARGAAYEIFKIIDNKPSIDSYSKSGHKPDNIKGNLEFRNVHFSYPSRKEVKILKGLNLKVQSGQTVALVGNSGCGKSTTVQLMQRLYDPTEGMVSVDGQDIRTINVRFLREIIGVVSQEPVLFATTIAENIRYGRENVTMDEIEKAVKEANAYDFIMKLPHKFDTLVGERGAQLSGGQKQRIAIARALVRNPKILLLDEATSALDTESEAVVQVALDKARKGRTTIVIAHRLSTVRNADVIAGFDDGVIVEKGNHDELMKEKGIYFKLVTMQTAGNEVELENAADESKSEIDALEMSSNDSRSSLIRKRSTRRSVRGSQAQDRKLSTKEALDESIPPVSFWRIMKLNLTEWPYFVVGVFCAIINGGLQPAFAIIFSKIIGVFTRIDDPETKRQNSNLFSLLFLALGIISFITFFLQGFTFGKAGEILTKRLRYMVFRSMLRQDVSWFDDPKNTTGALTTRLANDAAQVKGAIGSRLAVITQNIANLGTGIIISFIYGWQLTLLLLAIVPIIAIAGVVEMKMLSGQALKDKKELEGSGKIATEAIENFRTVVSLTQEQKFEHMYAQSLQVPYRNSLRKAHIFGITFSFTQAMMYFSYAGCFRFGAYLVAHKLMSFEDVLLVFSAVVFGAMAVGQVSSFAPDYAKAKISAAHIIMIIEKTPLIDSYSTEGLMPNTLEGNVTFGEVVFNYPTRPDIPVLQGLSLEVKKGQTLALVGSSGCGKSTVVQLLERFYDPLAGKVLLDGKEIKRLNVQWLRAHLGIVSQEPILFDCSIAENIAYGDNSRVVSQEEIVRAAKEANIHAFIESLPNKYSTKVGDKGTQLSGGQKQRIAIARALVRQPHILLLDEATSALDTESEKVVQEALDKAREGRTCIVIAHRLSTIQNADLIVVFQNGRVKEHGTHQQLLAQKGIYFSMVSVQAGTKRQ
Procedure for P-glycoprotein (P-gp): The intracellular accumulation of calcein inside the cells is measured by using FACS analysis. The points indicate mean values of fluorescent effect, vertical lines show standard error calculated on the base of two independent experiment replicates. The effect corresponds to a control of cells which were treated only with calcein.
Test compounds were dissolved in DMSO as stock solutions and further dilutions were made with DMEM/HAM's F12 1:1 (Biochrom). […] A range of concentrations of test compound in a volume of 300-600 μL cell suspension were added, followed by a 15 min incubation at 37° C. Calcein-AM (300 μL) (MoBiTec, Göttingen, Germany) in DMEM/HAM's F12 1:1 was added to a final concentration of 1 μM and incubated for 30 min at 37° C.
For the calcein-AM assay using flow cytometry, the cell density of suspensions in DMEM/Ham's F12 1:1 was 2.5×10^7 cells/ml.
Gating on forward and side scatter in concert with propidium iodide staining allowed distinguishing live endothelial cells.
Twenty thousand cells were sorted in each run, and data were processed and analyzed with CellQuest (Franklin Lakes, N.J., USA). All fluorescence signals were corrected for background fluorescence. Calcein-AM auto-hydrolysis was measured in control samples (n=6) without cells.

Regarding `CCCC(CCC)C(=O)OC1O[C@@H]2O[C@@]3(C)CC[C@H]4[C@H](C)CCC([C@H]1C)[C@@]24OO3` (some centres unmarked) [Compound 11, 10-Dihydroartemisinyl 2′-Propylpentanoate], the “Dead = number of dead embryos up to 48 hpf” value (shortened to “Dead = number”) in the data set on zebrafish embryos (10 μg/ml, N = 30 embryos) was found to be 22. Also, in the data set with zebrafish embryos, the “Concentration at which intersomitic vessel (ISV) formation was suppressed” value was found to be 1 µg/mL and the “Anti-angiogenic effect (in words)” value is listed as “dose-dependent anti-angiogenic effects”. Further, in data set [1], the Degree of resistance was 1.23.
With `C[C@H]1C(OC(=O)N(C)C)O[C@@H]2O[C@@]3(C)CC[C@H]4[C@H](C)CCC1[C@@]24OO3` (some centres unmarked) [Compound 14], the Degree of resistance in data set [1] worked out at 19.76.
Same read-out and setting: the result for `C[C@H]1C(OC(=O)c2ccccc2)O[C@@H]2O[C@@]3(C)CC[C@H]4[C@H](C)CCC1[C@@]24OO3` (some centres unmarked) [Compound 13, 10-dihydroartemisinyl benzoate] reads 7.79.
Consider `C/C=C/C[C@@H](C)C(=O)[C@H]1C(=O)N[C@@H](C(C)C)C(=O)N(C)CC(=O)N(C)[C@@H](CC(C)C)C(=O)N[C@@H](C(C)C)C(=O)N(C)[C@@H](CC(C)C)C(=O)N[C@@H](C)C(=O)N[C@H](C)C(=O)N(C)[C@@H](CC(C)C)C(=O)N(C)[C@@H](CC(C)C)C(=O)N(C)[C@@H](C(C)C)C(=O)N1C` [PSC-833, reference compound], for which, in data set [2], the “Inhibition of luminal P-gp (NBD-CSA in capillary lumen)” value (“Inhibition of luminal P-gp” for short) is reported as “inhibited”.
Take `C[C@@H]1CC[C@H]2[C@@H](C)CO[C@@H]3O[C@@]4(C)CC[C@@H]1[C@]32OO4` [Compound 3, Deoxoartemisinin]: the IC50 came out at 241 ± 50.7 µM in the data set with CCRF-CEM leukemia cells (Homo sapiens) and 117 ± 8.2 µM in data set [1] (setting [3]). Moreover, the Degree of resistance in data set [1] was 0.49.
As to `CCCC(=O)OC1O[C@@H]2O[C@@]3(C)CC[C@H]4[C@H](C)CCC([C@H]1C)[C@@]24OO3` (some centres unmarked) [Compound 9, 10-Dihydroartemisinyl Butyrate], the “Dead = number” value with zebrafish embryos (25 μg/ml, N = 30 embryos) amounted to 17. In addition, in the data set with zebrafish embryos, the “Concentration at which intersomitic vessel (ISV) formation was suppressed” value is 1 µg/mL and the “Anti-angiogenic effect (in words)” value is listed as “dose-dependent anti-angiogenic effects”. In data set [1], this compound yielded a Degree of resistance of 0.51.
With `C[C@@H]1CC[C@H]2[C@@H](C)C(=O)O[C@@H]3O[C@@]4(C)CC[C@@H]1[C@]32OO4` [Compound 1, artemisinin], the IC50 with CCRF-CEM leukemia cells (Homo sapiens) is 148 ± 16.6 µM; in data set [1] (setting [3]) it was 94.9 ± 30.5 µM. Moreover, at P-glycoprotein (P-gp) (CCRF-CEM and CEM/ADR5000 cells, FIG. 5), the “P-gp inhibition judged by calcein fluorescence” value is on record as “do not act as P-gp inhibitors”. For the same compound, the “EC max (intracellular calcein fluorescence compared to untreated controls)” value at P-glycoprotein (P-gp) is on record as 114.1 ± 2.85^ %.
On to `C[C@H]1C(OC(=O)C(Cl)Cl)O[C@@H]2O[C@@]3(C)CC[C@H]4[C@H](C)CCC1[C@@]24OO3` (some centres unmarked) [Compound 8, 10-Dihydroartemisinyl 2′,2′-Dichloroacetate], for which the “Anti-angiogenic effect (in words)” value in the data set with zebrafish embryos is “dose-dependent anti-angiogenic effects”. For the same compound, in data set [2], the “Inhibition of luminal P-gp” value is “almost empty lumen”.
Regarding `CC1CCC2C(C)C(SCCN)OC3OC4(C)CCC1C32OO4` (centres unmarked) [Compound 16, 10-Dihydroartemisinyl Thioethylamine], the IC50 with CCRF-CEM leukemia cells came to 0.86 ± 0.19 µM; in data set [1] (setting [4]), 3.34 ± 0.64 µM. The “EC max (intracellular calcein fluorescence compared to untreated controls)” value at P-glycoprotein (P-gp) is reported as 1011 ± 106.3%. Besides, the EC50 on P-glycoprotein (P-gp) was 27.2 ± 4.69 µM. In data set [1], this compound gave a Degree of resistance of 3.88.
Consider `CCC(C)OC1OC2OC3(C)CCC4C(C)CCC(C1C)C24OO3` (centres unmarked) [Compound 15, 10-(2′-Butyloxy)Dihydroartemisinin], for which the “Dead = number” value came out at 0 in the data set on zebrafish embryos (1.0 μg/ml, N = 10 embryos); 1 in the data set with zebrafish embryos (10 μg/ml, N = 10 embryos); 0 in the data set with zebrafish embryos (25 μg/ml, N = 10 embryos). The “Vasc. Defects = number of surviving embryos with vascular defects” value in the data set with zebrafish embryos (1.0 μg/ml, N = 10 embryos) is 0; in the data set on zebrafish embryos (10 μg/ml, N = 10 embryos) it was 0; in the data set on zebrafish embryos (25 μg/ml, N = 10 embryos), 0. In addition, the IC50 is 16.7 ± 7.34 µM with CCRF-CEM leukemia cells and 7.96 ± 3.76 µM in data set [1] (setting [4]). Besides, at P-glycoprotein (P-gp), the “EC max (intracellular calcein fluorescence compared to untreated controls)” value was 1180 ± 178.7%. For the same compound, the EC50 at P-glycoprotein (P-gp) is 61.8 ± 9.62 µM. Besides, the “Inhibition of luminal P-gp” value in data set [2] is given as “almost empty lumen”. The Degree of resistance in data set [1] stood at 0.47.
Take `C[C@H]1C(OC(=O)C(C)(C)C)O[C@@H]2O[C@@]3(C)CC[C@H]4[C@H](C)CCC1[C@@]24OO3` (some centres unmarked) [Compound 12, 10-Dihydroartemisinyl 2′,2′-Dimethylpropianate]: the “Dead = number” value in the data set on zebrafish embryos (1.0 μg/ml, N = 10 embryos) was 0. The “Anti-angiogenic effect (in words)” value in the data set on zebrafish embryos is recorded as “a specific anti-angiogenic effect was not observed”. For the same compound, in the data set on zebrafish embryos (zebrafish, in vivo), the “Toxicity to embryos (in words)” value is listed as “the most toxic at comparable doses”. Also, the Degree of resistance in data set [1] is 2.65.
`Cc1cc(C)c(/C=C2\C(=O)Nc3ccccc32)[nH]1` [SU5416, reference compound]: the “Formation of intersomitic vessels (ISVs) at 28 hpf” value with zebrafish embryos (10 μg/ml, 28 hpf) was “completely blocked”. Further, the “ISV sprouting at 48 hpf compared to control embryos” value with zebrafish embryos (10 μg/ml, 48 hpf) was “sprouted only minimally”.
For `CC(=O)OC1O[C@@H]2O[C@@]3(C)CC[C@H]4[C@H](C)CCC([C@H]1C)[C@@]24OO3` (some centres unmarked) [Compound 7, 10-Dihydroartemisinyl acetate], in the data set on zebrafish embryos, the “Anti-angiogenic effect (in words)” value was “dose-dependent anti-angiogenic effects”. The same compound yielded a Degree of resistance in data set [1] of 12.83. Besides, the “Inhibition of proliferation and survival of HUVECs” value in the data set on HUVEC cells is “inhibited the proliferation and survival of HUVECs significantly stronger than artemisinin”.
On to `CC(C)C(=O)OC1O[C@@H]2O[C@@]3(C)CC[C@H]4[C@H](C)CCC([C@H]1C)[C@@]24OO3` (some centres unmarked) [Compound 10], for which the “Anti-angiogenic effect (in words)” value in the data set on zebrafish embryos is on record as “dose-dependent anti-angiogenic effects”. Besides, the Degree of resistance in data set [1] was 22.46. The “Inhibition of proliferation and survival of HUVECs” value in the data set with HUVEC cells is “inhibited the proliferation and survival of HUVECs significantly stronger than artemisinin”.
Turning to `CC1=CO[C@@H]2O[C@@]3(C)CC[C@H]4[C@H](C)CC[C@@H]1[C@@]24OO3` [Compound 4, Anhydrodihydroartemisinin], the “Dead = number” value is listed as 2 with zebrafish embryos (50 μg/ml, N = 10 embryos) and 5 in the data set on zebrafish embryos (75 μg/ml, N = 10 embryos). In addition, the “Vasc. Defects = number of surviving embryos with vascular defects” value with zebrafish embryos (50 μg/ml, N = 10 embryos) is recorded as 0; with zebrafish embryos (75 μg/ml, N = 10 embryos), 0. In addition, in the data set on zebrafish embryos (75 μg/ml, N = 10 embryos), the Other defects observed result is given as “B, E”. The IC50 in the data set with CCRF-CEM leukemia cells (Homo sapiens) stood at 83.4 ± 7.51 µM; in data set [1] (setting [3]) it was 33.6 ± 0.68 µM.
